In BindingDB's records for doi:10.1038/nchembio.662 (University of California San Francisco, 2011):
pKi: −log10 of the molar value.

Tests used:
D(3) dopamine receptor = D(3) dopamine receptor (Homo sapiens, UniProt P35462); test: Binding Assay; conditions: pH 7.4; 22 °C
Procedure: (§1) Affinities for D3-dopaminergic, D2-dopaminergic and beta2-adrenergic receptors were determined by radioligand competition binding at the National Institute of Mental Health Psychoactive Drug Screening Program.

D(2) dopamine receptor = D(2) dopamine receptor (Homo sapiens, UniProt P14416); test: Binding Assay; conditions: pH 7.4; 22 °C
Procedure: as §1

D(2) dopamine receptor, sequence (P14416 whole entry): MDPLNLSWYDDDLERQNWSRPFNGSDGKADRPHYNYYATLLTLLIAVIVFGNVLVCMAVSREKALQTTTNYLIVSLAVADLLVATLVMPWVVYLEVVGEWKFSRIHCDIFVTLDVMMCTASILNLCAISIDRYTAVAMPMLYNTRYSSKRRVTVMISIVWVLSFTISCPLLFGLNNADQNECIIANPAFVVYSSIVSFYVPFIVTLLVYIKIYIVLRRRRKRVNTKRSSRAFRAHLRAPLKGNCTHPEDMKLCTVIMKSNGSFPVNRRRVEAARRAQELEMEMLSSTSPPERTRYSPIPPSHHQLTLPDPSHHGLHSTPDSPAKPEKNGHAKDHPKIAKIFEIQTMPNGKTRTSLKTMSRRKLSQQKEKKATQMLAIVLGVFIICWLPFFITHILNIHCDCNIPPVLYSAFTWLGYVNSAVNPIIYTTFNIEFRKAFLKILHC
D(3) dopamine receptor, sequence (P35462 as listed by the source): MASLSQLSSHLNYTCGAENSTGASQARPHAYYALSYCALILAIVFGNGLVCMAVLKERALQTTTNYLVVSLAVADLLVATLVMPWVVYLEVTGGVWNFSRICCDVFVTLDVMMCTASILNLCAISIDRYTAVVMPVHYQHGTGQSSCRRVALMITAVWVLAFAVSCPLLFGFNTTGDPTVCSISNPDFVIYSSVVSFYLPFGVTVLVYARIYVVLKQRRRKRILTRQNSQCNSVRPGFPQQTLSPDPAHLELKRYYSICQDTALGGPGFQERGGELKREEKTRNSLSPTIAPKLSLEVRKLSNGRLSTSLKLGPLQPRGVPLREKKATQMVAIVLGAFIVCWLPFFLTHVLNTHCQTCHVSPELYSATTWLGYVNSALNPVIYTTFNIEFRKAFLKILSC

Row | SMILES | pKi (D(3) dopamine receptor) | pKi (D(2) dopamine receptor)
1 | CNCc1ccc(-c2cc(Cl)cc(Cl)c2)o1 [Azanium analog, 55] | 6.70 | –
2 | O=c1oc2c(CN3CCCC3)c(O)ccc2c2c1CCC2 [ZINC 118327, 8] | < 5.00 | –
3 | CCSc1nnc2n1CCCN2C(=O)CN1CCOCC1 [ZINC 17173082, 12] | 5.01 | 5.20
4 | O[C@@H](CN1CCC(Oc2cccc(F)c2)CC1)c1cccs1 [ZINC 19294224, 9] | 5.02 | –
5 | CN(Cc1nc2ccccc2s1)C[C@H](O)Cc1ccccc1 [ZINC 27406499, 25] | < 5.00 | –
6 | N#C/C(=C\c1ccco1)C(=O)N1CCN(CCc2ccccc2)CC1 [ZINC 29218552, 47] | 5.00 | –
7 | c1ccc(Cn2cncn2)c(CNCc2ccc(-n3ccnc3)cc2)c1 [ZINC 30900826, 10] | 5.00 | –
8 | CC1CCN(CCC(=O)N2c3ccccc3C[C@@H]2C)CC1 [ZINC 39217391, 11] | 5.03 | –
9 | C[C@H](C1CC1)N(CCC(=O)N1CCc2ccccc21)C1CC1 [ZINC 42123507, 27] | < 5.00 | –
10 | c1ccc(-c2n[nH]cc2CNCc2ccc(Cn3ccnc3)cc2)cc1 [ZINC 42228310, 26] | 5.03 | –
11 | Cc1cccc2nc(C(=O)NCC(C)N(C)C)cn12 (configuration not stated) [ZINC 46272073, 50] | 5.00 | –
12 | CN(CCCOc1ccccc1)CC(=O)N1CCc2ccccc21 [ZINC 48057418, 45] | 5.14 | –

The remaining lines, values ahead:

Row | pKi (D(3) dopamine receptor) | pKi (D(2) dopamine receptor) | SMILES
13 | 5.02 | – | CC(C)(CO)NCc1ccc(-c2ccccc2)o1 [ZINC 529108, 67]
14 | 6.31 | – | C[C@H](O)CNCc1ccc(-c2cccc(Cl)c2)o1 [ZINC 4842613, 71]
15 | 5.57 | 5.18 | Clc1ccc(Cl)c(-c2ccc(CNC3CC3)o2)c1 [ZINC 4868730, 70]
16 | 5.06 | 5.54 | CC(C)(C)NCc1ccc(-c2ccccc2)o1 [ZINC 4942833, 65]
17 | 5.17 | – | CC(C)(CO)NCc1ccc(-c2ccc(F)c(Cl)c2)o1 [ZINC 4942963, 64]
18 | 5.56 | – | Cc1ccc(-c2ccc(CNC(C)(C)CO)o2)cc1Cl [ZINC 4999756, 68]
19 | 5.26 | – | CC(C)(C)NCc1ccc(-c2ccccc2Cl)o1 [ZINC 6743145, 66]
20 | 6.09 | – | CC[C@@H](CO)NCc1ccc(-c2cccc(Cl)c2C)o1 [ZINC 7538899, 72]
21 | 5.05 | – | CC(C)NCc1ccc(-c2ccccc2)o1 [ZINC 10436232, 69]
22 | 5.00 | – | Cc1cccc2nc(C(=O)NCC(c3ccco3)N(C)C)cn12 (configuration not stated) [ZINC 41903371, 52]
23 | 5.11 | – | CN(C)[C@H](CNC(=O)c1cc([N+](=O)[O-])cc([N+](=O)[O-])c1)c1ccco1 [ZINC 49944321, 48]
24 | 5.06 | – | CN(CCOc1cccc(F)c1)CC(O)c1c(F)cccc1F (configuration not stated) [ZINC 51423503, 49]
